Holding throughout (format): in vivo
The test system of test [1] is Abutilon theophrasti. Description: Glasshouse assay for herbicidal activity, post-emergence, ABUTH. Conditions: visual 13 days after application, 100%=total damage; for pest or weed control at 30 g/ha / pest or weed control at 250 g/ha: Abutilon theophrasti, 312 h, read-out: Percentage phytotoxicity ABUTH. The protocol:
(§1) Seeds of a variety of test plant species were sown in standard soil ** in pots. After cultivation for one day (pre-emergence) or after 8 days cultivation (post-emergence) under controlled conditions in a glasshouse (at 24/16° C., day/night; 14 hours light; 65% humidity), the plants were sprayed with an aqueous spray solution derived from the formulation of the technical active ingredient (the test herbicide) in acetone/water (50:50) solution containing 0.5% Tween 20 (polyoxyethylene sorbitan monolaurate, CAS Reg. No. 9005-64-5). The test plants were then grown on under controlled conditions in a glasshouse (at 24/16° C., day/night; 14 hours light; 65% humidity) and watered twice daily. 13 Days after application of the test herbicide, for pre- and post-emergence, the test was evaluated visually for percentage phytotoxicity to each plant (where 100%=total damage to plant; 0%=no damage to plant). Generally, each test herbicide is only tested on 1 plant per plant species for each application rate tested and for each application timing. The “standard soil” in Biological Example 1 is usually a “sand” or “sandy loam” type of soil. Biological Example 1—Post-Emergence Application—Herbicidal Activity Results (Percentage Phytotoxicity) Dicotyledonous weeds: ABUTH=Abutilon theophrasti; AMARE=Amaranthus retroflexus. Grassy monocotyledonous weeds: SETFA=Setaria faberi; ALOMY=Alopecurus myosuroides; ECHCG=Echinochloa crus-galli; ZEAMX=Zea mays (corn, maize, e.g. volunteer corn).

Test [2] relates to Amaranthus retroflexus. Description: Glasshouse assay for herbicidal activity, post-emergence, AMARE. Conditions: visual 13 days after application, 100%=total damage; for pest or weed control at 30 g/ha / pest or weed control at 250 g/ha: Amaranthus retroflexus, 312 h, read-out: Percentage phytotoxicity AMARE. The protocol: as §1
Test [3] concerns Setaria faberi. Description: Glasshouse assay for herbicidal activity, post-emergence, SETFA. Conditions: visual 13 days after application, 100%=total damage; for pest or weed control at 30 g/ha / pest or weed control at 250 g/ha: Setaria faberi, 312 h, read-out: Percentage phytotoxicity SETFA. The protocol:
as §1

Test [4] has as its system Alopecurus myosuroides. Description: Glasshouse assay for herbicidal activity, post-emergence, ALOMY. To be noted: visual 13 days after application, 100%=total damage; for pest or weed control at 30 g/ha / pest or weed control at 250 g/ha: Alopecurus myosuroides, 312 h, read-out: Percentage phytotoxicity ALOMY. The protocol:
as §1

Test [5] relates to Echinochloa crus-galli. Description: Glasshouse assay for herbicidal activity, post-emergence, ECHCG. Conditions: visual 13 days after application, 100%=total damage; for pest or weed control at 30 g/ha / pest or weed control at 250 g/ha: Echinochloa crus-galli, 312 h, read-out: Percentage phytotoxicity ECHCG. The protocol:
as §1

Test [6] relates to Zea mays (corn, maize, e.g. volunteer corn). The test can be described thus: Glasshouse assay for herbicidal activity, post-emergence, ZEAMX. To be noted: visual 13 days after application, 100%=total damage; for pest or weed control at 30 g/ha / pest or weed control at 250 g/ha: Zea mays, 312 h, read-out: Percentage phytotoxicity ZEAMX. The protocol:
as §1

With “4-(2,6-Dimethoxy-4-prop-1-ynyl-phenyl)-2,2,6,6-tetramethyl-tetrahydropyran-3,5-dione [Compound A2]”, the “Percentage phytotoxicity ABUTH” value in test [1] (250 g/ha) amounted to 10%. Further, the “Percentage phytotoxicity AMARE” value in test [2] (250 g/ha) is on record as 0%. Also, in test [3] (250 g/ha), the “Percentage phytotoxicity SETFA” value was 90%. For the same molecule, the “Percentage phytotoxicity ALOMY” value in test [4] (250 g/ha) amounted to 90%. In addition, the “Percentage phytotoxicity ECHCG” value in test [5] (250 g/ha) worked out at 70%. In addition, the “Percentage phytotoxicity ZEAMX” value in test [6] (250 g/ha) is reported as 70%.
Turning to `CC#Cc1ccc(C2C(=O)C3CCC(C3)C2=O)c(OC)c1` (centres unmarked) [Compound A1, 3-(2-methoxy-4-prop-1-ynyl-phenyl)bicyclo[3.2.1]octane-2,4-dione], the pest or weed control at 30 g/ha came out at 10% in test [1]; 30% in test [2]; 90% in test [3]; 100% in test [4]; 100% in test [5]; 100% in test [6]. In addition, the pest or weed control at 250 g/ha in test [1] (250 g/ha) stood at 20%; in test [2] (250 g/ha), 50%; in test [3] (250 g/ha) it was 100%; in test [4] (250 g/ha) it was 100%; in test [5] (250 g/ha) it was 100%; in test [6] (250 g/ha), 100%.
Consider `CC#Cc1cc(OC)c(C2C(=O)C3CCC(C3)C2=O)c(C(F)(F)F)c1` (centres unmarked) [Compound A3, 3-[2-methoxy-4-prop-1-ynyl-6-(trifluoromethyl)phenyl]bicyclo[3.2.1]octane-2,4-dione], for which the pest or weed control at 30 g/ha was determined as 0% in test [1]; 0% in test [2]; 70% in test [3]; 40% in test [4]; 70% in test [5]; 90% in test [6]. For the same molecule, the pest or weed control at 250 g/ha in test [1] (250 g/ha) was found to be 0%; in test [2] (250 g/ha) it was 0%; in test [3] (250 g/ha), 90%; in test [4] (250 g/ha) it was 70%; in test [5] (250 g/ha) it was 100%; in test [6] (250 g/ha) it was 90%.
On to `CC#Cc1ccc(C2C(=O)C3CCC(C3)C2=O)c(OCC(F)(F)F)c1` (centres unmarked) [Compound A4], for which the pest or weed control at 30 g/ha in test [1] came out at 0%; in test [2], 0%; in test [3], 40%; in test [4] it was 10%; in test [5] it was 20%; in test [6], 30%. Besides, the pest or weed control at 250 g/ha in test [1] (250 g/ha) worked out at 0%; in test [2] (250 g/ha), 0%; in test [3] (250 g/ha), 70%; in test [4] (250 g/ha), 30%; in test [5] (250 g/ha), 40%; in test [6] (250 g/ha) it was 60%.
As to `CC#Cc1ccc(C2C(=O)C3CCC(C3)C2=O)c(OC(F)F)c1` (centres unmarked) [Compound A5], the pest or weed control at 30 g/ha in test [1] came to 0%; in test [2] it was 0%; in test [3], 60%; in test [4], 50%; in test [5] it was 90%; in test [6], 100%. The pest or weed control at 250 g/ha came to 0% in test [1] (250 g/ha); 0% in test [2] (250 g/ha); 90% in test [3] (250 g/ha); 80% in test [4] (250 g/ha); 100% in test [5] (250 g/ha); 100% in test [6] (250 g/ha).
Regarding `CC#Cc1ccc(C2C(=O)C3CCC(C3)C2=O)c(OCCC)c1` (centres unmarked) [Compound A6], the pest or weed control at 30 g/ha in test [1] was 0%; in test [2] it was 0%; in test [3], 10%; in test [5], 40%; in test [6], 40%. The pest or weed control at 250 g/ha in test [1] (250 g/ha) turned out to be 0%; in test [2] (250 g/ha), 0%; in test [3] (250 g/ha), 50%; in test [5] (250 g/ha) it was 70%; in test [6] (250 g/ha) it was 80%.
`CC#Cc1cc(OC)c(C2C(=O)C3CCC(C3)C2=O)c(OC)c1` (centres unmarked) [Compound A7]: the pest or weed control at 30 g/ha came out at 0% in test [1]; 0% in test [2]; 100% in test [3]; 90% in test [4]; 100% in test [5]; 100% in test [6]. Besides, the pest or weed control at 250 g/ha stood at 10% in test [1] (250 g/ha); 0% in test [2] (250 g/ha); 100% in test [3] (250 g/ha); 100% in test [4] (250 g/ha); 100% in test [5] (250 g/ha); 100% in test [6] (250 g/ha).
Turning to `CC#Cc1ccc(C2C(=O)C3CCC(C3)C2=O)c(OC(F)(F)F)c1` (centres unmarked) [Compound A8], the pest or weed control at 250 g/ha in test [1] (250 g/ha) is 80%; in test [2] (250 g/ha), 10%; in test [3] (250 g/ha), 100%; in test [4] (250 g/ha) it was 100%; in test [5] (250 g/ha), 100%; in test [6] (250 g/ha) it was 100%.
Turning to `CC#Cc1ccc(C2C(=O)CC(CCSC)CC2=O)c(OC)c1` (centres unmarked) [Compound A9], the pest or weed control at 30 g/ha was determined as 20% in test [1]; 0% in test [2]; 80% in test [3]; 30% in test [4]; 80% in test [5]; 90% in test [6]. Besides, the pest or weed control at 250 g/ha in test [1] (250 g/ha) came out at 40%; in test [2] (250 g/ha), 20%; in test [3] (250 g/ha), 90%; in test [4] (250 g/ha) it was 90%; in test [5] (250 g/ha) it was 90%; in test [6] (250 g/ha) it was 100%.
`CC#Cc1ccc(C2C(=O)CCCC2=O)c(OC)c1` [Compound A10]: the pest or weed control at 30 g/ha is 0% in test [1]; 10% in test [2]; 60% in test [3]; 0% in test [4]; 20% in test [5]; 90% in test [6]. The pest or weed control at 250 g/ha came out at 10% in test [1] (250 g/ha); 20% in test [2] (250 g/ha); 70% in test [3] (250 g/ha); 70% in test [4] (250 g/ha); 30% in test [5] (250 g/ha); 90% in test [6] (250 g/ha).
On to `CC#Cc1cc(OC)c(C2C(=O)CCCC2=O)c(OC)c1` [Compound A11, 2-(2,6-dimethoxy-4-prop-1-ynyl-phenyl)cyclohexane-1,3-dione], for which the pest or weed control at 30 g/ha in test [1] came to 0%; in test [2], 10%; in test [3], 100%; in test [4], 70%; in test [5], 100%; in test [6] it was 100%. For the same molecule, the pest or weed control at 250 g/ha is 0% in test [1] (250 g/ha); 30% in test [2] (250 g/ha); 100% in test [3] (250 g/ha); 90% in test [4] (250 g/ha); 100% in test [5] (250 g/ha); 100% in test [6] (250 g/ha).
As to `CC#Cc1ccc(C2C(=O)C3CCC(C3)C2=O)c(OCC)c1` (centres unmarked) [Compound A14], the pest or weed control at 30 g/ha in test [1] was found to be 0%; in test [2], 0%; in test [3], 50%; in test [5], 70%; in test [6] it was 70%. Also, the pest or weed control at 250 g/ha in test [1] (250 g/ha) was found to be 0%; in test [2] (250 g/ha), 0%; in test [3] (250 g/ha), 90%; in test [5] (250 g/ha), 100%; in test [6] (250 g/ha) it was 90%.

These data come from US10662138B2, “Herbicidal propynyl-phenyl compounds” (Syngenta Participations AG, priority 2014, dated 2020).
